PubChem BioAssay (NCI)
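Where inhibition never reached the appropriate level, the endpoint shown equals the highest concentration tested. Otherwise, values were interpolated linearly from a five-concentration, 48-hour dose response in 96-well plates. Definition used: TGI = concentration required for complete inhibition of growth.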

Experiments:
Assay in all cases: NCI anticancer screen, dose series, 48 h
OVCAR-5 ovarian = test system: OVCAR-5 ovarian
SK-MEL-28 melanoma = test system: SK-MEL-28 melanoma
SF-268 CNS = test system: SF-268 CNS
MCF7 breast = test system: MCF7 breast
HT29 colon = test system: HT29 colon
CAKI-1 renal = test system: CAKI-1 renal
U251 CNS = test system: U251 CNS
M14 melanoma = test system: M14 melanoma
DU-145 prostate = test system: DU-145 prostate
SF-539 CNS = test system: SF-539 CNS
K-562 leukemia = test system: K-562 leukemia
SNB-75 CNS = test system: SNB-75 CNS
SW-620 colon = test system: SW-620 colon
UACC-62 melanoma = test system: UACC-62 melanoma
PC-3 prostate = test system: PC-3 prostate
RPMI-8226 leukemia = test system: RPMI-8226 leukemia
HOP-62 NSCLC = test system: HOP-62 NSCLC
ACHN renal = test system: ACHN renal
UO-31 renal = test system: UO-31 renal
EKVX NSCLC = test system: EKVX NSCLC
MALME-3M melanoma = test system: MALME-3M melanoma
NCI-H460 lung = test system: NCI-H460 lung
SK-OV-3 ovarian = test system: SK-OV-3 ovarian
COLO 205 colon = test system: COLO 205 colon
BT-549 breast = test system: BT-549 breast
SK-MEL-2 melanoma = test system: SK-MEL-2 melanoma
A498 renal = test system: A498 renal
NCI-H522 lung = test system: NCI-H522 lung
UACC-257 melanoma = test system: UACC-257 melanoma
SN12C renal = test system: SN12C renal
HOP-92 NSCLC = test system: HOP-92 NSCLC
KM12 colon = test system: KM12 colon
MDA-MB-231 breast = test system: MDA-MB-231 breast
T-47D breast = test system: T-47D breast
HCT-116 colon = test system: HCT-116 colon
NCI-H23 lung = test system: NCI-H23 lung
786-0 renal = test system: 786-0 renal
MOLT-4 leukemia = test system: MOLT-4 leukemia
LOX IMVI melanoma = test system: LOX IMVI melanoma
TK-10 renal = test system: TK-10 renal
HL-60(TB) leukemia = test system: HL-60(TB) leukemia
NCI-H226 lung = test system: NCI-H226 lung
SF-295 CNS = test system: SF-295 CNS
OVCAR-8 ovarian = test system: OVCAR-8 ovarian
HS 578T breast = test system: HS 578T breast
MDA-N = test system: MDA-N
A549 NSCLC = test system: A549 NSCLC
OVCAR-4 ovarian = test system: OVCAR-4 ovarian
IGROV1 ovarian = test system: IGROV1 ovarian
SNB-19 CNS = test system: SNB-19 CNS
MDA-MB-435 = test system: MDA-MB-435
SR leukemia = test system: SR leukemia
RXF 393 renal = test system: RXF 393 renal
OVCAR-3 ovarian = test system: OVCAR-3 ovarian
SK-MEL-5 melanoma = test system: SK-MEL-5 melanoma
NCI/ADR-RES ovarian = test system: NCI/ADR-RES ovarian
HCT-15 colon = test system: HCT-15 colon
CCRF-CEM leukemia = test system: CCRF-CEM leukemia

C=CCSc1nc2c(N)ncnc2n1C1OC(CO)C(O)C1O (stereo unspecified)
TGI (OVCAR-5 ovarian): > 100 µM
TGI (SK-MEL-28 melanoma): > 100 µM
TGI (SF-268 CNS): > 100 µM
TGI (MCF7 breast): > 100 µM
TGI (HT29 colon): > 100 µM
TGI (CAKI-1 renal): > 100 µM
TGI (U251 CNS): > 100 µM
TGI (M14 melanoma): > 100 µM
TGI (DU-145 prostate): > 100 µM
TGI (SF-539 CNS): > 100 µM
TGI (K-562 leukemia): > 100 µM
TGI (SNB-75 CNS): > 100 µM
TGI (SW-620 colon): > 100 µM
TGI (UACC-62 melanoma): > 100 µM
TGI (PC-3 prostate): > 100 µM
TGI (RPMI-8226 leukemia): > 100 µM
TGI (HOP-62 NSCLC): > 100 µM
TGI (ACHN renal): > 100 µM
TGI (UO-31 renal): > 100 µM
TGI (EKVX NSCLC): > 100 µM
TGI (MALME-3M melanoma): > 100 µM
TGI (NCI-H460 lung): > 100 µM
TGI (SK-OV-3 ovarian): > 100 µM
TGI (COLO 205 colon): > 100 µM
TGI (BT-549 breast): > 100 µM
TGI (SK-MEL-2 melanoma): > 100 µM
TGI (A498 renal): > 100 µM
TGI (NCI-H522 lung): > 100 µM
TGI (UACC-257 melanoma): > 100 µM
TGI (SN12C renal): > 100 µM
TGI (HOP-92 NSCLC): > 100 µM
TGI (KM12 colon): > 100 µM
TGI (MDA-MB-231 breast): > 100 µM
TGI (T-47D breast): > 100 µM
TGI (HCT-116 colon): > 100 µM
TGI (NCI-H23 lung): > 100 µM
TGI (786-0 renal): > 100 µM
TGI (MOLT-4 leukemia): > 100 µM
TGI (LOX IMVI melanoma): > 100 µM
TGI (TK-10 renal): > 100 µM
TGI (HL-60(TB) leukemia): > 100 µM
TGI (NCI-H226 lung): > 100 µM
TGI (SF-295 CNS): > 100 µM
TGI (OVCAR-8 ovarian): > 100 µM
TGI (HS 578T breast): > 100 µM
TGI (MDA-N): > 100 µM
TGI (A549 NSCLC): > 100 µM
TGI (OVCAR-4 ovarian): > 100 µM
TGI (IGROV1 ovarian): > 100 µM
TGI (SNB-19 CNS): > 100 µM
TGI (MDA-MB-435): > 100 µM
TGI (SR leukemia): > 100 µM
TGI (RXF 393 renal): > 100 µM
TGI (OVCAR-3 ovarian): > 100 µM
TGI (SK-MEL-5 melanoma): > 100 µM
TGI (NCI/ADR-RES ovarian): > 100 µM
TGI (HCT-15 colon): > 100 µM

COC(=O)C1(NC(=O)C(CC(=O)OCc2ccccc2)NC(=O)OCc2ccccc2)CCCCCCC1 (stereo unspecified)
TGI (OVCAR-5 ovarian): > 100 µM
TGI (SK-MEL-28 melanoma): > 100 µM
TGI (SF-268 CNS): > 100 µM
TGI (MCF7 breast): > 100 µM
TGI (HT29 colon): > 100 µM
TGI (CAKI-1 renal): > 100 µM
TGI (U251 CNS): > 100 µM
TGI (M14 melanoma): > 100 µM
TGI (DU-145 prostate): > 100 µM
TGI (SF-539 CNS): > 100 µM
TGI (K-562 leukemia): > 100 µM
TGI (SNB-75 CNS): > 100 µM
TGI (SW-620 colon): > 100 µM
TGI (UACC-62 melanoma): 63.2 µM
TGI (PC-3 prostate): > 100 µM
TGI (RPMI-8226 leukemia): 39.2 µM
TGI (HOP-62 NSCLC): > 100 µM
TGI (ACHN renal): > 100 µM
TGI (UO-31 renal): > 100 µM
TGI (EKVX NSCLC): > 100 µM
TGI (NCI-H460 lung): > 100 µM
TGI (SK-OV-3 ovarian): > 100 µM
TGI (COLO 205 colon): 82.7 µM
TGI (BT-549 breast): > 100 µM
TGI (A498 renal): 67.7 µM
TGI (NCI-H522 lung): > 100 µM
TGI (SN12C renal): > 100 µM
TGI (HOP-92 NSCLC): > 100 µM
TGI (KM12 colon): > 100 µM
TGI (MDA-MB-231 breast): > 100 µM
TGI (T-47D breast): 94.2 µM
TGI (HCT-116 colon): > 100 µM
TGI (NCI-H23 lung): > 100 µM
TGI (786-0 renal): > 100 µM
TGI (MOLT-4 leukemia): > 100 µM
TGI (LOX IMVI melanoma): > 100 µM
TGI (TK-10 renal): > 100 µM
TGI (HL-60(TB) leukemia): 51.9 µM
TGI (NCI-H226 lung): 90.9 µM
TGI (SF-295 CNS): > 100 µM
TGI (OVCAR-8 ovarian): > 100 µM
TGI (HS 578T breast): > 100 µM
TGI (MDA-N): > 100 µM
TGI (A549 NSCLC): > 100 µM
TGI (OVCAR-4 ovarian): > 100 µM
TGI (IGROV1 ovarian): > 100 µM
TGI (SNB-19 CNS): > 100 µM
TGI (MDA-MB-435): > 100 µM
TGI (SR leukemia): > 100 µM
TGI (RXF 393 renal): > 100 µM
TGI (OVCAR-3 ovarian): > 100 µM
TGI (SK-MEL-5 melanoma): 29.4 µM
TGI (NCI/ADR-RES ovarian): > 100 µM
TGI (HCT-15 colon): > 100 µM

COc1ccc2c3c1O[C@H]1[C@@H](O)CC[C@@]4(O)[C@@H](C2)N(C)CC[C@]314
TGI (OVCAR-5 ovarian): > 100 µM
TGI (SK-MEL-28 melanoma): > 100 µM
TGI (SF-268 CNS): > 100 µM
TGI (MCF7 breast): > 100 µM
TGI (HT29 colon): > 100 µM
TGI (CAKI-1 renal): > 100 µM
TGI (U251 CNS): > 100 µM
TGI (M14 melanoma): > 100 µM
TGI (DU-145 prostate): > 100 µM
TGI (SF-539 CNS): > 100 µM
TGI (K-562 leukemia): > 100 µM
TGI (SW-620 colon): > 100 µM
TGI (UACC-62 melanoma): > 100 µM
TGI (PC-3 prostate): > 100 µM
TGI (RPMI-8226 leukemia): > 100 µM
TGI (HOP-62 NSCLC): > 100 µM
TGI (ACHN renal): > 100 µM
TGI (UO-31 renal): > 100 µM
TGI (EKVX NSCLC): > 100 µM
TGI (MALME-3M melanoma): > 100 µM
TGI (SK-OV-3 ovarian): > 100 µM
TGI (COLO 205 colon): > 100 µM
TGI (BT-549 breast): > 100 µM
TGI (SK-MEL-2 melanoma): > 100 µM
TGI (A498 renal): > 100 µM
TGI (NCI-H522 lung): > 100 µM
TGI (UACC-257 melanoma): > 100 µM
TGI (SN12C renal): > 100 µM
TGI (HOP-92 NSCLC): > 100 µM
TGI (KM12 colon): > 100 µM
TGI (MDA-MB-231 breast): > 100 µM
TGI (T-47D breast): > 100 µM
TGI (HCT-116 colon): > 100 µM
TGI (NCI-H23 lung): > 100 µM
TGI (786-0 renal): > 100 µM
TGI (MOLT-4 leukemia): > 100 µM
TGI (LOX IMVI melanoma): > 100 µM
TGI (TK-10 renal): > 100 µM
TGI (HL-60(TB) leukemia): > 100 µM
TGI (NCI-H226 lung): > 100 µM
TGI (SF-295 CNS): > 100 µM
TGI (OVCAR-8 ovarian): > 100 µM
TGI (HS 578T breast): > 100 µM
TGI (MDA-N): > 100 µM
TGI (A549 NSCLC): > 100 µM
TGI (OVCAR-4 ovarian): > 100 µM
TGI (IGROV1 ovarian): > 100 µM
TGI (SNB-19 CNS): > 100 µM
TGI (MDA-MB-435): > 100 µM
TGI (SR leukemia): > 100 µM
TGI (OVCAR-3 ovarian): > 100 µM
TGI (SK-MEL-5 melanoma): > 100 µM
TGI (CCRF-CEM leukemia): > 100 µM
TGI (NCI/ADR-RES ovarian): > 100 µM
TGI (HCT-15 colon): > 100 µM
